Reference: patent US6372208B1, “Method of reducing an immune response to a recombinant virus” (The Trustees of the University of Pennsylvania, priority 1996, dated 2002)

Key:
[1] = test system: adenovirus (H5.010CMVlacZ); experiment: Neutralizing antibody to adenovirus in serum; format: in vivo, C57BL/6 mice; conditions: IL-12 i.p., liver-directed
From the text: Mice from each group were subsequently euthanized and liver tissues evaluated for lacZ expression by X-gal histochemistry (magnification ×100) at day 3 and day 28; and for ALP expression by histochemical staining at day 31 (magnification ×100). Development of neutralizing antibody to adenovirus in each group of mice was examined in serum samples obtained at day 28.
Serum samples were also collected at days 0, 3, 7, 14, 21, 28, 35 and 42 from each group of animals and assayed for neutralizing antibody titer. Serum samples were incubated at 56° C. for 30 minutes and then diluted in DMEM in twofold steps starting from 1:20. Each serum dilution (100 μl) was mixed with H5.010CMVlacZ (2×10^6 pfu in 20 μl), incubated for 1 hour at 37° C., and applied to 80% confluent Hela cells in 96-well plates (2×10^4 cells per well). After 60 minutes incubation at 37° C., 100 μl of DMEK containing 20% FBS were added to each well. Cells were fixed and stained for β-galactosidase expression on the following day. All of the cells stained blue in the absence of serum samples. […] FIGS. 3A-3D report the antibody titer expressed as a function of days post-infection.

HT-2 cells = experiment: IL-2/IL-4 in supernatants of virus-restimulated MLN lymphocytes, HT-2 cell 3H-thymidine incorporation; format: cell-based, C57BL/6 mice
Procedure: Lymphocytes from MLN of the control group and IL-12 treated group of C57BL/6 mice were harvested 28 days after administration of H5.010CBALP and restimulated in vitro with UV-inactivated H5.010CMVlacZ at 10 particles/cell for 24 hours. Cell-free supernatants were assayed for the presence of IL-2 or IL-4 on HT-2 cells (an IL-2 or IL-4-dependent cell line) [Yang I, cited above]. Presence of IFN-γ in the same lymphocyte culture supernatant was measured on L929 cells as described [Yang I, cited above]. Stimulation index (S.I.) was calculated by dividing ^3H-thymidine cpm incorporated into HT-2 cells cultured in supernatants of lymphocytes restimulated with virus by ^3H-thymidine cpm incorporated into HT-2 cells cultured in supernatants of lymphocytes incubated in antigen-free medium.

[2] = test system: recombinant adenoviruses H5.010CBALP and H5.010CMVlacZ; experiment: Lung-directed adenovirus gene transfer and readministration, transgene expression by histochemistry (Example 2); format: in vivo, C57BL/6 mice
Procedure: Female C57BL/6 mice (6˜8 week old) were infected with suspensions of H5.010CBALP (1×10^9 pfu in 50 μl of PBS) via the trachea at day 0 and similarly with H5.010CMVlacZ at day 28. One group of such mice was used as a control. Another group of mice were acutely depleted of CD4^+ cells by i.p. injection of antibody to CD4^+ cells (GK1.5; ATCC No. TIB207, 1:10 dilution of ascites) at the time of the initial gene therapy (days −3, 0, and +3). A third group of mice was injected with IL-12 (1 μg intratracheal or 2 μg, i.p. injections) at the time of the first administration of virus (days 0 and +1). A fourth group of mice was injected with gamma interferon. (1 μg intratracheal or 2 μg, i.p. injections) at the time of the first administration of virus (days 0 and +1).
When mice were subsequently euthanized and necropsied at days 3, 28, or 31, lung tissues were prepared for cryosections, while bronchial alveolar lavage (BAL) and mediastinal lymph nodes (MLN) were harvested for immunological assays.
The lung tissues were evaluated for ALP expression at day 3 and day 28 by histochemical staining following the procedures of Yang I, cited above. β-galactosidase expression was assayed at day 31 by X-gal histochemical staining. The results described below were obtained from the alkaline phosphatase histochemical stains (magnification ×100) or β-galactosidase X-gal stains (magnification ×100).

H5.010CBlacZ = experiment: Adenovirus-specific IgG and IgA in BAL by ELISA; format: in vivo, C57BL/6 mice; conditions: day 28, versus control mice
Procedure: Adenovirus-specific antibody isotype was determined in BAL by using an enzyme-linked immunosorbent assay (ELISA). Briefly, 96-well plates were coated with 100 μl of PBS containing 5×10^9 particles of H5.010CBlacZ for 18 hours at 4° C. The wells were washed 5 times with PBS. After blocking with 200 μl of 2% BSA in PBS, the plates were rinsed once with PBS and incubated with 1:10 diluted BAL samples for 90 minutes at 4° C. Thereafter, the wells were extensively washed and refilled with 100 μl of 1:1000 diluted ALP-conjugated anti-mouse IgG or IgA (Sigma). The plates were incubated, subsequently washed 5 times, and 100 μl of the substrate solution (p-nitrophenyl phosphate, PNPP) was added to each well. Substrate conversion was stopped by the addition of 50 μl of 0.1M EDTA, and reactions were read at 405 nm.
The results are shown graphically in FIGS. 1A through 1C, which summarize neutralizing antibody titer, and the relative amounts (OD405) of IgG and IgA present in BAL samples.

H5.010CMVlacZ virus = experiment: Adenovirus-specific IgG1 and IgG2a in serum by ELISA; format: in vivo, C57BL/6 mice; conditions: 28 days after infection
Procedure: A. Serum samples obtained from the C57BL/6 mice (“B6”) and IL-12 treated C57BL/6 (“B6+IL12”) mice of Example 5 were tested 28 days after infection for adenovirus-specific IgG1 and IgG2a antibody isotypes.
A solid phase enzyme linked immunosorbent assay (ELISA) using purified H5.010CMVlacZ virus as antigen was performed. Immunolon-2-U microtiter plates (Fisher) were coated with 200 ng/well of viral antigen in […] of PBS for 6 hours at 37° C., washed three times in PBS, and blocked in PBS/1% BSA overnight at 4° C. The following day, 4-fold serial diluted serum samples were added to antigen-coated plates and incubated for 4 hours at 37° C. Plates were washed three times in PBS/1% BSA and incubated with goat anti-mouse IgG1-biotin or goat anti-mouse IgG2a-biotin (CALTAG Laboratories, San Francisco, Calif.) at 1:5000 dilution for 2 hours at 37° C. Plates were washed as above and Avidin-ALP (Sigma) was added to each well at 1:5000 dilution for 1 hour at 37° C. Wells were again washed as above and PNPP substrate was added. Optical densities were read on a Biorad model 450 microplate reader.

For interleukin-12 [IL-12], the “reduction in neutralizing antibody” value [1] was 3 fold, the “3H-Thymidine Incorporation (cpm ± SD), Medium” value (HT-2 cells; MLN lymphocytes 28 days after H5.010CBALP, antigen-free medium) was 247 ± 34 cpm and the “3H-Thymidine Incorporation (cpm ± SD), H5.010CMVlacZ” value (HT-2 cells; MLN lymphocytes day 28, restimulated with UV-inactivated H5.010CMVlacZ 24 hours) was 5203 ± 28 cpm. For the same substance, the “3H-Thymidine Incorporation (cpm ± SD), H5.010CMVlacZ” value (HT-2 cells; as E2, with anti-IL2 (1:5000)) was 776 ± 50 cpm, the “3H-Thymidine Incorporation (cpm ± SD), H5.010CMVlacZ” value (HT-2 cells; as E2, with anti-IL4 (1:5000)) was 4608 ± 52 cpm and the “ratio of IL-2/IL-4” value (HT-2 cells; lymphocytes stimulated in vitro with virus, 3 without IL-12) was 6. The “S.I. (stimulation index)” value (HT-2 cells; virus restimulated / antigen-free medium) was 21.07, the “S.I. (stimulation index)” value (HT-2 cells; with anti-IL2 (1:5000)) was 3.14 and the “S.I. (stimulation index)” value (HT-2 cells; with anti-IL4 (1:5000)) was 18.66. For the same substance, the “transgene expression after first administration of virus (ALP)” value ([2]; lung, intratracheal, days 3 and 28) was “diminished after about one month”, the “gene transfer upon second administration of virus (lacZ)” value ([2]; lung, readministered day 28, read day 31) was “high level gene transfer to airway epithelial cells was achieved” and the “inflammation and transgene persistence following a second administration of virus” value ([2]; treatment at the time of intratracheal instillation of virus) was “did not enhance inflammation or diminish transgene persistence”. The “IgG in BAL” value (H5.010CBlacZ) was “without significantly impacting on formation of IgG”, the “virus specific IgA in BAL” value (H5.010CBlacZ) was “selectively blocked secretion of antigen specific IgA” and the “anti-viral IgG1 in serum” value (H5.010CMVlacZ virus) was “less anti-viral IgG1”. The “anti-viral IgG2a in serum” value (H5.010CMVlacZ virus) was “increased production of IgG2a”.
